Data as given in patent US20110020843A1, “LABEL-FREE METHODS RELATED TO PHOSPHODIESTERASES” (priority 2009, published 2011).

What was measured:
[1] = test system: quiescent A431 cells (endogenous PDE4 isoforms); assay: Label-free Epic RWG biosensor DMR assay of PDE inhibitors in synchronized quiescent A431 cells; type: cell-based, human; conditions: A431; 10 micromolar; ultra-high confluent cells, 2 hrs in low CO2 (~2%) (FIG. 12A)
Procedure: Cells were typically grown using ˜1 to 2×10^4 cells per well at passage 3 to 15 suspended in 50 μl of the corresponding culture medium in the biosensor microplate, and were cultured at 37° C. under air/5% CO2 for ˜1 day. Except for A431 which was subject to ˜20 hr starvation through continuously culture in the serum-free DMEM, the other cell types were directly assayed without starvation.
Epic® wavelength interrogation system (Corning Inc., Corning, N.Y.) was used for whole cell sensing. This system consists of a temperature-control unit, an optical detection unit, and an on-board liquid handling unit with robotics. The detection unit is centered on integrated fiber optics, and enables kinetic measures of cellular responses with a time interval of ˜15 sec. The compound solutions were introduced by using the on-board liquid handling unit (i.e., pippetting).
The RWG biosensor is capable of detecting minute changes in local index of refraction near the sensor surface. Since the local index of refraction within a cell is a function of density and its distribution of biomass (e.g., proteins, molecular complexes), the biosensor exploits its evanescent wave to non-invasively detect ligand-induced dynamic mass redistribution in native cells. The evanescent wave extends into the cells and exponentially decays over distance, leading to a characteristic sensing volume of ˜150 nm, implying that any optical response mediated through the receptor activation only represents an average over the portion of the cell that the evanescent wave is sampling. The aggregation of many cellular events downstream the receptor activation determines the kinetics and amplitudes of a ligand-induced DMR.
All studies were carried out at a controlled temperature (28° C.). At least two independent sets of experiments, each with at least three replicates, were performed.
We further examined the DMR signal, if any, of the quiescent A431 cells upon treatment with PDE inhibitors. […] The quiescent A431 cells obtained under the same culture condition were used. Here the initial seeding numbers of cells were relatively low (˜20K cells per well in a 384 well Epic biosensor microplate tissue culture treated). […] After washing with the serum free medium, the cells were continuously cultured in the serum free medium for another 24 hrs to reach a quiescent state. Here the quiescent state was largely achieved through serum withdrawl. […] The cell membrane bound carbonic anahydrase is a known sensor for CO2 level.
In FIG. 4 the quiescent cells were achieved primarily through serum withdrawl. We were interested in the quiescent cells achieved through both contact inhibition and serum withdrawl. To do so, much higher initial seeding numbers of cells (>=25k cells per well for the 384 well Epic biosensor microplate) were used. […] Here both quiescent cells were subject to the same synchronization condition (2 hr incubation in the HBSS assay solution in a low CO2 environment).
Here the quiescent A431 cells were used using 22k cells per well in 384 well Epic biosensor microplates, followed by one day (˜24 hrs) culture in serum medium and 1 day (˜24 hrs) serum free medium, and sequential synchronization in the HBSS buffer solution under a relatively low CO2 environment for 2 hrs. […] For comparison, the DMR signal of cells stimulated with the buffer only (“Vehicle”) were included.

quiescent A431 cells = assay: DMR modulation index against panel of markers in quiescent A431 cells; type: cell-based, human
From the text: 191. To characterize the polypharmacology including PDE4 inhibitory activity of compounds, we used the known EGFR inhibitor tyrphostin 51 as an example. Quiescent A431 and proliferating A549 cells were separately exposed to tyrphostin 51 at 10 micromolar for about 1 hr to generate its primary profiles, followed by stimulation with each marker at a fixed concentration for another 1 hr or so to generate secondary profiles of the tyrphostin 51 against the panels of markers in both types of cells. Next, one or more specific DMR parameters were chosen as a readout for plotting the DMR index of the molecule.
192. The first panel of markers was contacted with quiescent A431 cells at concentrations close to each of the marker's EC80 or EC100, and DMR measurements were obtained with and EPIC® system. This panel of markers was selected from a library of markers identified in A431 cells using Epic® cellular assays. This panel included epidermal growth factor (EGF), epinephrine, nicotinic acid, and histamine. Each of these markers leads to a wide array of cell signaling. Using Epic® cellular assays in conjunction with chemical biology and cell biology approach similar to the EGFR DMR mentioned above, we have determined the pathway(s) and network interaction(s) that is accounted for each marker-induced DMR signal in A431 cells. The main observations are summarized below. Epidermal growth factor is a natural agonist for endogenous EGF receptor in A431 whose activation leads to a divergent array of cell signaling, including PLC-PI3K pathway, MAPK pathway, STAT pathway, and PKC pathway. Epinephrine is a natural agonist for endogenous beat2-adrenergic receptor in A431 cells, whose activation leads to cAMP-PKA pathway. Nicotinic acid is a natural agonist for endogenous GPR109A receptor in A431, whose activation leads to Gi-mediated signaling and MAPK pathway. Histamine is a natural agonist for endogenous histamine type 1 receptor (H1R) in A431, whose activation leads to Gq-mediated signaling and PKC pathway. […] Each DMR signal represents an averaged response of 4 replicates.
194. For the pinacidil DMR response in A549, the amplitude of the N-DMR (i.e., the amplitude 30 min after stimulation) was chosen. For the poly(I:C) DMR response in A549, the amplitude of the late DMR (i.e., the amplitude 50 min after stimulation) was chosen. For the PMA response in A549, the late DMR amplitude (i.e., the amplitude 50 min after stimulation) was chosen. For the SLIGKV-amide DMR response in A549, the P-DMR amplitude (i.e., the amplitude 20 min after stimulation) was chosen. For the forskolin response in A549 cells, the P-DMR amplitude (i.e., the amplitude 50 min after stimulation) was chosen. For the histamine response in A549, both the early DMR amplitude (i.e., amplitude 10 min after stimulation) and the late response (i.e., the amplitude 30 min after stimulation) were chosen. For the epinephrine response in A431, the P-DMR amplitude (i.e., the amplitude 50 min after stimulation) was chosen. For the nicotinic acid DMR in A431, the P-DMR amplitude (i.e., the amplitude 3 min after stimulation) was chosen. For the EGF DMR in A431, both the P-DMR (i.e., the amplitude 4 min after stimulation) and N-DMR amplitudes (i.e., the decaying amplitude between 4 min and 40 min after simulation) were chosen. For the histamine response in A431, the P-DMR amplitude (i.e., the amplitude 3 min after stimulation) was chosen. The percentage of modulation of the marker against each marker was calculated by normalizing the secondary profile of the molecule against the marker in the cell to the primary profile of the same marker acting on the same cell.

[2] = quiescent A431, 10 micromolar pretreatment ~1 hr

N#CC(C#N)=C(N)/C(C#N)=C/c1cc(O)c(O)c(O)c1 [tyrphostin 51]
primary DMR profile [1]: closely resembled the classic Gs-DMR signals | effect of pretreatment on EGF induced DMR signal (quiescent A431 cells; A431, FIG. 12C): attenuation | effect of pretreatment on epinephrine DMR signal (quiescent A431 cells; A431, FIG. 12C): partially attenuated | effect of pretreatment on histamine DMR signal (quiescent A431 cells; A431, FIG. 12C): partially attenuated | modulation of EGF N-DMR (decaying amplitude 4 to 40 min) (quiescent A431 cells; [2]): −5% | modulation of EGF P-DMR (amplitude 4 min) (quiescent A431 cells; [2]): −36% | modulation of epinephrine DMR (P-DMR amplitude 50 min) (quiescent A431 cells; [2]): −68% | modulation of histamine DMR (P-DMR amplitude 3 min) (quiescent A431 cells; [2]): −16% | modulation of nicotinic acid DMR (P-DMR amplitude 3 min) (quiescent A431 cells; [2]): +4%
